assay: Fluorescence Based Assay: The details of the KEAP1 KELCH ThermoFluor® Assay Construct are as follows: Kelch domain of human KEAP 1 (321-624 aa) was used in the assay. The protein was expressed in E. coli with 6His tag that was cleaved prior to receipt for use.ThermoFluor® experiments were carried out using instruments owned by Janssen Research and Discovery, L.L.C. through its acquisition of 3-Dimensional Pharmaceuticals, Inc. 1,8-ANS (Invitrogen) was used as a fluorescent dye. Protein (KEAP Kelch) and compound solutions were dispensed into black 384-well polypropylene PCR microplates (Abgene) and overlayed with silicone oil (1 μL, Fluka, type DC 200) to prevent evaporation.Reference wells contained KEAP Kelch without compounds, and the assay conditions were as follows: 1.1 μM (0.037mg/mL) KEAP Kelch, 80 μM 1,8-ANS, 25 mM PIPES, pH 7.0, 100 mM NaCl, 0.002% Tween-20.

SMILES	Kd
Cc1ccc([C@H](CC(=O)O)c2ccn3c(C(F)(F)F)nnc3c2C)cc1CN1CC2(CC2)Oc2ncc(F)cc2S1(=O)=O	< 1 nM
Cc1cnc2c(c1)S(=O)(=O)N(Cc1cc([C@@H](c3ccn4c(C5CC5)nnc4c3C)C(C)(C)C(=O)O)ccc1C)CC1(CC1)O2	< 1 nM
Cc1ccc(C(CC(=O)O)c2ccc3c(nnn3CC3CC3)c2C)cc1CN1C[C@H]2CCCN2c2ncccc2S1(=O)=O (stereo not given in full)	< 1 nM
CCn1nnc2c(C)c(C(CC(=O)O)c3ccc(C)c(CN4C[C@@H]5CCCN5c5ncccc5S4(=O)=O)c3)ccc21 (stereo not given in full)	< 1 nM
Cc1ccc([C@@H](c2ccn3c(C4CC4)nnc3c2C)C(C)(C)C(=O)O)cc1CN1CC2(COC2)Oc2ncccc2S1(=O)=O	< 1 nM
CCn1nnc2c(C)c(C(CC(=O)O)c3ccc(C)c(CN4CC5(COC5)Oc5ncccc5S4(=O)=O)c3)ccc21 (stereo not given)	< 1 nM
Cc1ccc([C@H](c2ccn3c(C(F)(F)F)nnc3c2C)C(C)(C)C(=O)O)cc1CN1CC2(CCOCC2)Oc2nc(NCCN3CCOCC3)c(C)cc2S1(=O)=O	< 1 nM
Cc1ccc([C@@H](CC(=O)O)c2ccn3c(C(F)(F)F)nnc3c2C)cc1CN1C[C@@H]2CCCCN2c2ncccc2S1(=O)=O	< 1 nM
Cc1cnc([C@@H](c2ccn3c(C(F)(F)F)nnc3c2C)C(C)(C)C(=O)O)cc1CN1CC2(CCOCC2)Oc2nc(OCCN3CCCC3)c(C)cc2S1(=O)=O	< 1 nM
Cc1cnc([C@@H](c2ccn3c(C(F)(F)F)nnc3c2C)C(C)(C)C(=O)O)cc1CN1CC2(CC2)Oc2nc(OCCN3CCCC3)c(C)cc2S1(=O)=O	< 1 nM
Cc1ccc(C(CC(=O)O)c2ccn3c(C(F)(F)F)nnc3c2C)cc1CN1C[C@H]2CCCN2c2ncccc2S1(=O)=O (stereo not given in full)	< 1 nM
Cc1ccc([C@H](CC(=O)O)c2ccn3c(C(F)F)nnc3c2C)cc1CN1CC2(COC2)Oc2ccccc2S1(=O)=O	< 1 nM
Cc1ccc([C@@H](CC(=O)O)c2ccn3c(C(F)F)nnc3c2C)cc1CN1CC2(CC2)Oc2ncc(Cl)cc2S1(=O)=O	< 1 nM
Cc1ccc([C@@H](c2ccn3c(C(F)(F)F)nnc3c2C)C(C)(C)C(=O)O)cc1CN1CC2(CCOCC2)Oc2nc(N[C@H](C)CCO)ccc2S1(=O)=O	< 1 nM
Cc1ccc([C@@H](c2ccn3c(C(F)F)nnc3c2C)C(C)(C)C(=O)O)cc1CN1CC2(CCOCC2)Oc2nc(OCCN3CCCCC3)c(C)cc2S1(=O)=O	< 1 nM
Cc1ccc(C(CC(=O)O)c2ccc3c(nnn3CC3CC3)c2C)cc1CN1CC2(COC2)Oc2ccccc2S1(=O)=O (stereo not given)	< 1 nM
Cc1cnc2c(c1)S(=O)(=O)N(Cc1cc([C@@H](c3ccn4c(C(F)F)nnc4c3C)C(C)(C)C(=O)O)ccc1C)CC1(CCOCC1)O2	< 1 nM
Cc1ccc([C@H](CC(=O)O)c2ccn3c(C(F)F)nnc3c2C)cc1CN1C[C@]2(C)CCCN2c2ncccc2S1(=O)=O	< 1 nM
Cc1ccc([C@@H](c2ccn3c(C(F)(F)F)nnc3c2C)C(C)(C)C(=O)O)cc1CN1CC2(CC2)Oc2nc(OCCN3CC(F)C3)c(C)cc2S1(=O)=O	< 1 nM
Cc1ccc(C(CC(=O)O)c2ccn3c(C(F)F)nnc3c2C)cc1CN1C[C@@H]2CCCN2c2ncc(C#N)cc2S1(=O)=O (stereo not given in full)	< 1 nM
Cc1ccc([C@@H](c2ccc3c(nnn3CC3CC3)c2C)C(C)(C)C(=O)O)nc1CN1CC2(CCOCC2)Oc2nc(OCCN3CCOCC3)ccc2S1(=O)=O	< 1 nM
Cc1ccc([C@@H](CC(=O)O)c2ccn3c(C(F)(F)F)nnc3c2C)cc1CN1C[C@H]2CCCN2c2ccccc2S1(=O)=O	< 1 nM

SMILES	Kd
Cc1ccc([C@@H](c2ccn3c(C4CC4)nnc3c2C)C(C)(C)C(=O)O)cc1CN1CC2(CCOCC2)Oc2ncccc2S1(=O)=O	< 1 nM
Cc1ccc([C@@H](c2ccn3c(C(F)F)nnc3c2C)C(C)(C)C(=O)O)nc1CN1CC2(CCOCC2)Oc2nc(OCCN3CCCC3)c(C)cc2S1(=O)=O	< 1 nM
Cc1c(C(CC(=O)O)c2ccc(Cl)c(CN3CC4CCCCN4c4ncccc4S3(=O)=O)c2)ccn2c(C(F)(F)F)nnc12 (stereo not given)	< 1 nM
Cc1ccc([C@@H](c2ccn3c(C(F)(F)F)nnc3c2C)C(C)(C)C(=O)O)cc1CN1CC2(CCOCC2)Oc2nc(N[C@@H](C)CCO)ccc2S1(=O)=O	< 1 nM
Cc1cnc2c(c1)S(=O)(=O)N(Cc1cc([C@H](c3ccn4c(C5CC5)nnc4c3C)C(C)(C)C(=O)O)ccc1C)CC1(COC1)O2	< 1 nM
Cc1ccc([C@@H](CC(=O)O)c2ccn3c(C(F)F)nnc3c2C)cc1CN1CC2(CCOCC2)Oc2ncc(F)cc2S1(=O)=O	< 1 nM
Cc1ccc([C@@H](CC(=O)O)c2ccc3c(nnn3CC3CC3)c2C)cc1CN1C[C@H]2CCCCN2c2ncccc2S1(=O)=O	< 1 nM
Cc1cnc2c(c1)S(=O)(=O)N(Cc1cc([C@@H](c3ccn4c(C(F)(F)F)nnc4c3C)C(C)(C)C(=O)O)ncc1C)CC1(CCOCC1)O2	< 1 nM
Cc1ccc([C@H](CC(=O)O)c2ccn3c(C(F)(F)F)nnc3c2C)cc1CN1CC2CCCCN2c2ncc(C#N)cc2S1(=O)=O (stereo not given in full)	< 1 nM
Cc1ccc([C@@H](c2ccn3c(C(F)(F)F)nnc3c2C)C(C)(C)C(=O)O)cc1CN1C[C@@H]2CCCCN2c2ncc(C#N)cc2S1(=O)=O	< 1 nM
Cc1ccc([C@H](CC(=O)O)c2ccn3c(C(F)(F)F)nnc3c2C)cc1CN1C[C@@H]2CCCCN2c2ncc(Cl)cc2S1(=O)=O	< 1 nM
Cc1ccc([C@@H](c2ccn3c(C(F)(F)F)nnc3c2C)C(C)(C)C(=O)O)nc1CN1CC2(CCOCC2)Oc2nc(OCCN3CCOCC3)ccc2S1(=O)=O	< 1 nM
Cc1ccc([C@H](CC(=O)O)c2ccn3c(C(F)(F)F)nnc3c2C)cc1CN1CC2(CC2)Oc2ncc(Cl)cc2S1(=O)=O	< 1 nM
Cc1ccc(C(CC(=O)O)c2ccn3c(C4CC4)nnc3c2C)cc1CN1C[C@H]2CCCN2c2ncccc2S1(=O)=O (stereo not given in full)	< 1 nM
Cc1ccc([C@@H](c2ccn3c(C(F)(F)F)nnc3c2C)C(C)(C)C(=O)O)cc1CN1CC2(CC2)Oc2nc(OCCN3CCOCC3)c(C)cc2S1(=O)=O	< 1 nM
Cc1cnc2c(c1)S(=O)(=O)N(Cc1cc([C@@H](CC(=O)O)c3ccn4c(C(F)(F)F)nnc4c3C)ccc1C)CC1(CC1)O2	< 1 nM
Cc1ccc([C@H](CC(=O)O)c2ccn3c(C(F)(F)F)nnc3c2C)nc1CN1CC2(CC2)Oc2ncc(F)cc2S1(=O)=O	< 1 nM
CCc1nnc2c(C)c([C@@H](CC(=O)O)c3ccc(C)c(CN4C[C@H]5CCCN5c5ncccc5S4(=O)=O)c3)ccn12	< 1 nM
Cc1ccc([C@H](CC(=O)O)c2ccn3c(C(F)(F)F)nnc3c2C)cc1CN1CC2(CC2)Oc2nc(NCCO)ccc2S1(=O)=O	< 1 nM
Cc1ccc([C@@H](CC(=O)O)c2ccn3c(C(F)(F)F)nnc3c2C)nc1CN1CC2(CC2)Oc2ncccc2S1(=O)=O	< 1 nM
Cc1ccc([C@@H](CC(=O)O)c2ccc3c(nnn3CC3CC3)c2C)cc1CN1C[C@@H]2CCCCN2c2ncccc2S1(=O)=O	< 1 nM
CCc1nnc2c(C)c([C@H](CC(=O)O)c3ccc(C)c(CN4C[C@H]5CCCN5c5ccccc5S4(=O)=O)c3)ccn12	< 1 nM

SMILES	Kd
Cc1ccc([C@H](c2ccn3c(C(F)(F)F)nnc3c2C)C(C)(C)C(=O)O)cc1CN1CC2(CCOCC2)Oc2nc(N[C@H](C)CN3CCOCC3)c(C)cc2S1(=O)=O	< 1 nM
Cc1ccc([C@@H](c2cc(C)n3c(C(F)(F)F)nnc3c2C)C(C)C(=O)O)cc1CN1C[C@@H]2CCCCN2c2ncccc2S1(=O)=O (stereo not given in full)	< 1 nM
Cc1cnc2c(c1)S(=O)(=O)N(Cc1nc([C@H](CC(=O)O)c3ccn4c(C(F)(F)F)nnc4c3C)ccc1C)C[C@H]1CCCCN21	< 1 nM
Cc1ccc([C@@H](c2ccn3c(C(F)F)nnc3c2C)C(C)(C)C(=O)O)cc1CN1CC2(COC2)Oc2ncccc2S1(=O)=O	< 1 nM
Cc1ccc([C@@H](CC(=O)O)c2ccn3c(C(F)F)nnc3c2C)cc1CN1C[C@H]2CCCN2c2ncccc2S1(=O)=O	< 1 nM
Cc1ccc([C@@H](CC(=O)O)c2ccc3c(nnn3C3CC3)c2C)cc1CN1C[C@]2(C)CCCN2c2ncccc2S1(=O)=O	< 1 nM
CCn1nnc2c(C)c([C@@H](CC(=O)O)c3ccc(C)c(CN4C[C@@H]5CCCN5c5ccccc5S4(=O)=O)c3)ccc21	< 1 nM
Cc1ccc([C@@H](CC(=O)O)c2ccn3c(C(F)F)nnc3c2C)cc1CN1CC2(CC2)Oc2ncccc2S1(=O)=O	< 1 nM
Cc1ccc([C@H](c2ccc3c(nnn3C3CC3)c2C)C(C)(C)C(=O)O)cc1CN1CC2(CCNCC2)Oc2ncccc2S1(=O)=O	< 1 nM
Cc1ccc(C(CC(=O)O)c2ccn3c(C(F)F)nnc3c2C)cc1CN1CC2(CCOCC2)Oc2ncc(F)cc2S1(=O)=O (stereo not given)	< 1 nM
CC[C@@H]1CN(Cc2cc([C@H](CC(=O)O)c3ccn4c(C(F)(F)F)nnc4c3)ccc2C)S(=O)(=O)c2cccnc2O1	< 1 nM
Cc1ccc([C@@H](c2ccn3c(C(F)(F)F)nnc3c2C)C(C)(C)C(=O)O)cc1CN1CC2(CCOCC2)Oc2nc(OCCCO)ccc2S1(=O)=O	< 1 nM
Cc1ccc([C@H](c2ccn3c(C(F)(F)F)nnc3c2C)C(C)(C)C(=O)O)cc1CN1C[C@@H]2CCCCN2c2ncc(C#N)cc2S1(=O)=O	< 1 nM
Cc1ccc([C@@H](c2ccc3c(nnn3CC3CC3)c2C)C(C)(C)C(=O)O)cc1CN1CC2(CCOCC2)Oc2ncccc2S1(=O)=O	< 1 nM
Cc1ccc([C@H](CC(=O)O)c2ccn3c(C(F)(F)F)nnc3c2C)cc1CN1C[C@H]2COCCN2c2ncc(Cl)cc2S1(=O)=O	< 1 nM
Cc1c([C@H](CC(=O)O)c2ccc(Cl)c(CN3CC4CCCCN4c4ncc(F)cc4S3(=O)=O)c2)ccn2c(C(F)(F)F)nnc12 (stereo not given in full)	< 1 nM
Cc1ccc([C@H](CC(=O)O)c2ccn3c(C(F)F)nnc3c2C)cc1CN1CC2(CC2)Oc2ncccc2S1(=O)=O	< 1 nM
Cc1cnc2c(c1)S(=O)(=O)N(Cc1cc([C@@H](c3ccc4c(nnn4C4CC4)c3C)C(C)(C)C(=O)O)ccc1C)CC1(CCNCC1)O2	< 1 nM
Cc1cnc2c(c1)S(=O)(=O)N(Cc1cc(C(c3ccn4c(C(F)(F)F)nnc4c3C)C(C)(C)C(=O)O)cnc1C)CC1(CCOCC1)O2 (stereo not given)	< 1 nM
Cc1ccc([C@H](CC(=O)O)c2ccn3c(C(F)(F)F)nnc3c2C)cc1CN1C[C@H]2CCCCN2c2ccccc2S1(=O)=O	< 1 nM
Cc1ccc([C@H](CC(=O)O)c2ccn3c(C(F)(F)F)nnc3c2C)nc1CN1CC2(CC2)Oc2ncccc2S1(=O)=O	< 1 nM

Reference: ChEMBL document CHEMBL5729293, “Inhibitors of KEAP1-Nrf2 protein-protein interaction” (2022)
